Measurements published in patent US12162872B2, “Cycloalkylurea derivative” (Sumitomo Pharma Co., Ltd., priority 2019, dated 2024).

Target: T1, Human orexin receptor type 2 (Homo sapiens, UniProt O43614)
T1 construct: expressed in transfected cells; host or cells: CHO cells (transient expression)
T1 sequence (O43614 1-444): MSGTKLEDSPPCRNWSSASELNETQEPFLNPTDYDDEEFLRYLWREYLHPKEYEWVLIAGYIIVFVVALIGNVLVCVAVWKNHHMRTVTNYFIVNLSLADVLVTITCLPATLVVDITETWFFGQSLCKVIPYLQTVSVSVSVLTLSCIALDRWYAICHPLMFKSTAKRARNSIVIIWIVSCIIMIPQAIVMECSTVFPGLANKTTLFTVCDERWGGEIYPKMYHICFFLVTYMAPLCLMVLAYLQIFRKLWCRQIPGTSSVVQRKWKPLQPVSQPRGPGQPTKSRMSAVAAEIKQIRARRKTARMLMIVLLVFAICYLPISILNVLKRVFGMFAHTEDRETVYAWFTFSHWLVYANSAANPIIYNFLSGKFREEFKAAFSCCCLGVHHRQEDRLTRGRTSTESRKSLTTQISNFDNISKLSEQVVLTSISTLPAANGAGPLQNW
Assay: Test 2: Evaluation of agonist activity for orexin receptor type 2 (aequorin luminescence, intracellular calcium mobilization in CHO cells)
Assay type: cell-based
Conditions: relative percentage of luminescence for the luminescence (100%) of Orexin A (100 pM); CHO cells transiently expressing human orexin receptor type 2 and apoaequorin; Orexin A Lot. 671009
In short: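 CHO cells transiently co-expressing the receptor and apoaequorin, incubated 16–22 h, were loaded 2 h at room temperature with 1 μM coelenterazine hcp (final). Compounds in Hanks/20 mM HEPES/0.1% BSA (0.1% DMSO final) were added and the calcium luminescence was read and expressed as % of Orexin A (100 pM).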

SMILES	agonist activity (%)
CC(C)N1CCC(O[C@H]2CCCC(F)(F)[C@@H]2NC(=O)N2CCC(C)(c3noc([C@@H]4C[C@@H]4F)n3)CC2)CC1 [Example 83, N-[(1R,6S)-2,2-difluoro-6-{[1-(propan-2-yl)piperidin-4-yl]oxy}cyclohexyl]-4-{5-[(1S,2S)-2-fluorocyclopropyl]-1,2,4-oxadiazol-3-yl}-4-methylpiperidine-1-carboxamide]	371%
CC(C)N1C[C@@H]2[C@H](C1)[C@H]2O[C@H]1CCCC(F)(F)[C@@H]1NC(=O)N1CCC(C)(c2noc([C@@H]3C[C@@H]3F)n2)CC1 [Example 106, N-[(1R,6S)-2,2-difluoro-6-{[(1R,5S,6S)-3-(propan-2-yl)-3-azabicyclo[3.1.0]hexan-6-yl]oxy}cyclohexyl]-4-{5-[(1S,2S)-2-fluorocyclopropyl]-1,2,4-oxadiazol-3-yl}-4-methylpiperidine-1-carboxamide]	220%
CC(C)CN1CC[C@H](O[C@H]2CCCC(F)(F)[C@@H]2NC(=O)N2CCC(C)(c3noc(C4CC4)n3)CC2)C1 [Example 116, 4-(5-cyclopropyl-1,2,4-oxadiazol-3-yl)-N-[(1R,6S)-2,2-difluoro-6-{[(3S)-1-(2-methylpropyl)pyrrolidin-3-yl]oxy}cyclohexyl]-4-methylpiperidine-1-carboxamide]	488%
CC(C)N1CCC(S(=O)(=O)[C@H]2CCCC(F)(F)[C@@H]2NC(=O)N2CCC(C)(c3noc([C@@H]4C[C@@H]4F)n3)CC2)CC1 [Example 155, N-{(1S,6S)-2,2-difluoro-6-[1-(propan-2-yl)piperidine-4-sulfonyl]cyclohexyl}-4-{5-[(1S,2S)-2-fluorocyclopropyl]-1,2,4-oxadiazol-3-yl}-4-methylpiperidine-1-carboxamide]	167%
CN(CC1CC1)C1CCN([C@H]2CCCC(F)(F)[C@@H]2NC(=O)N2CCC(C)(c3noc([C@@H]4C[C@@H]4F)n3)CC2)CC1 [Example 158, N-[(1R,6S)-6-{4-[(cyclopropylmethyl)(methyl)amino]piperidin-1-yl}-2,2-difluorocyclohexyl]-4-{5-[(1S,2S)-2-fluorocyclopropyl]-1,2,4-oxadiazol-3-yl}-4-methylpiperidine-1-carboxamide]	389%
CC(C)N(C)C1CCN([C@H]2CCCC(F)(F)[C@@H]2NC(=O)N2CCC(C)(c3noc([C@@H]4C[C@@H]4F)n3)CC2)CC1 [Example 114, N-[(1R,6S)-2,2-difluoro-6-{4-[methyl(propan-2-yl)amino]piperidin-1-yl}cyclohexyl]-4-{5-[(1S,2S)-2-fluorocyclopropyl]-1,2,4-oxadiazol-3-yl}-4-methylpiperidine-1-carboxamide]	438%
CN(CC1(F)CC1)C1CCN([C@H]2CCCC(F)(F)[C@@H]2NC(=O)N2CCC(C)(c3noc([C@@H]4C[C@@H]4F)n3)CC2)CC1 [Example 136, N-[(1R,6S)-2,2-difluoro-6-(4-{[(1-fluorocyclopropyl)methyl](methyl)amino}piperidin-1-yl)cyclohexyl]-4-{5-[(1S,2S)-2-fluorocyclopropyl]-1,2,4-oxadiazol-3-yl}-4-methylpiperidine-1-carboxamide]	346%
CC(C)N1CC[C@H](N[C@H]2CCCC(F)(F)[C@@H]2NC(=O)N2CCC(C)(c3noc([C@@H]4C[C@@H]4F)n3)CC2)C1 [Example 161, N-[(1R,6S)-2,2-Difluoro-6-{[(3S)-1-(propan-2-yl)pyrrolidin-3-yl]amino}cyclohexyl]-4-{5-[(1S,2S)-2-fluorocyclopropyl]-1,2,4-oxadiazol-3-yl}-4-methylpiperidine-1-carboxamide]	374%
CC(C)N1CCC(N(C)[C@H]2CCCC(F)(F)[C@@H]2NC(=O)N2CCC(C)(c3noc([C@@H]4C[C@@H]4F)n3)CC2)CC1 [Example 123, N-[(1R,6S)-2,2-difluoro-6-{methyl[1-(propan-2-yl)piperidin-4-yl]amino}cyclohexyl]-4-{5-[(1S,2S)-2-fluorocyclopropyl]-1,2,4-oxadiazol-3-yl}-4-methylpiperidine-1-carboxamide]	366%
CC(C)(C)CN1CC[C@H](O[C@H]2CCCC(F)(F)[C@@H]2NC(=O)N2CCC(C)(c3noc([C@@H]4C[C@@H]4F)n3)CC2)C1 [Example 120, N-[(1R,6S)-6-{[(3S)-1-(2,2-dimethylpropyl)pyrrolidin-3-yl]oxy}-2,2-difluorocyclohexyl]-4-{5-[(1S,2S)-2-fluorocyclopropyl]-1,2,4-oxadiazol-3-yl}-4-methylpiperidine-1-carboxamide]	387%
CC(C)N(C)[C@H]1CCN([C@H]2CCCC(F)(F)[C@@H]2NC(=O)N2CCC(C)(c3noc(C4CC4)n3)CC2)C1 [Example 99, 4-(5-cyclopropyl-1,2,4-oxadiazol-3-yl)-N-[(1R,6S)-2,2-difluoro-6-{(3S)-3-[methyl(propan-2-yl)amino]pyrrolidin-1-yl}cyclohexyl]-4-methylpiperidine-1-carboxamide]	499%
CC(C)N1CCN([C@H]2CCCC(F)(F)[C@@H]2NC(=O)N2CCC(C)(c3noc(C4CCC4)n3)CC2)CC1 [Example 97, 4-(5-cyclobutyl-1,2,4-oxadiazol-3-yl)-N-{(1R,6S)-2,2-difluoro-6-[4-(propan-2-yl)piperazin-1-yl]cyclohexyl}-4-methylpiperidine-1-carboxamide]	486%
CC(C)N1CCCN([C@H]2CCCC(F)(F)[C@@H]2NC(=O)N2CCC(C)(c3noc([C@@H]4C[C@@H]4F)n3)CC2)CC1 [Example 152, N-{(1R,6S)-2,2-difluoro-6-[4-(propan-2-yl)-1,4-diazepan-1-yl]cyclohexyl}-4-{5-[(1S,2S)-2-fluorocyclopropyl]-1,2,4-oxadiazol-3-yl}-4-methylpiperidine-1-carboxamide]	470%
CC(C)c1nc([C@H]2CCCC(F)(F)[C@@H]2NC(=O)N2CCC(C)(c3noc([C@@H]4C[C@@H]4F)n3)CC2)no1 [Example 86, N-{(1R,6S)-2,2-difluoro-6-[5-(propan-2-yl)-1,2,4-oxadiazol-3-yl]cyclohexyl}-4-{5-[(1S,2S)-2-fluorocyclopropyl]-1,2,4-oxadiazol-3-yl}-4-methylpiperidine-1-carboxamide]	367%
CN(CC1CC1)[C@H]1CCCN([C@H]2CCCC(F)(F)[C@@H]2NC(=O)N2CCC(C)(c3noc([C@@H]4C[C@@H]4F)n3)CC2)CC1 [Example 144, N-[(1R,6S)-6-{(4S)-4-[(cyclopropylmethyl)(methyl)amino]azepan-1-yl}-2,2-difluorocyclohexyl]-4-{5-[(1S,2S)-2-fluorocyclopropyl]-1,2,4-oxadiazol-3-yl}-4-methylpiperidine-1-carboxamide]	399%
CC(C)N1CCN([C@H]2CCCC(F)(F)[C@@H]2NC(=O)N2CCC(C)(c3noc([C@@H]4C[C@@H]4F)n3)CC2)[C@@H](C)C1 [Example 110, N-{(1R,6S)-2,2-difluoro-6-[(2S)-2-methyl-4-(propan-2-yl)piperazin-1-yl]cyclohexyl}-4-{5-[(1S,2S)-2-fluorocyclopropyl]-1,2,4-oxadiazol-3-yl}-4-methylpiperidine-1-carboxamide]	380%
CN(CC1(C)CC1)C1CCN([C@H]2CCCC(F)(F)[C@@H]2NC(=O)N2CCC(C)(c3noc([C@@H]4C[C@@H]4F)n3)CC2)CC1 [Example 134, N-[(1R,6S)-2,2-difluoro-6-(4-{methyl[(1-methylcyclopropyl)methyl]amino}piperidin-1-yl)cyclohexyl]-4-{5-[(1S,2S)-2-fluorocyclopropyl]-1,2,4-oxadiazol-3-yl}-4-methylpiperidine-1-carboxamide]	456%
CC(C)N1CC[C@@H](N(C)[C@H]2CCCC(F)(F)[C@@H]2NC(=O)N2CCC(C)(c3noc([C@@H]4C[C@@H]4F)n3)CC2)C1 [Example 113, N-[(1R,6S)-2,2-difluoro-6-{methyl[(3R)-1-(propan-2-yl)pyrrolidin-3-yl]amino}cyclohexyl]-4-{5-[(1S,2S)-2-fluorocyclopropyl]-1,2,4-oxadiazol-3-yl}-4-methylpiperidine-1-carboxamide]	374%
CC(C)N1CCN([C@H]2CCC[C@@H](F)[C@@H]2NC(=O)N2CCC(C)(c3noc(C4CC4)n3)CC2)CC1 (racemic) [Example 139, rac-4-(5-cyclopropyl-1,2,4-oxadiazol-3-yl)-N-{(1R,2R,6S)-2-fluoro-6-[4-(propan-2-yl)piperazin-1-yl]cyclohexyl}-4-methylpiperidine-1-carboxamide]	351%

Same assay, conditions: relative percentage of luminescence for the luminescence (100%) of Orexin A (100 pM); CHO cells transiently expressing human orexin receptor type 2 and apoaequorin; Orexin A Lot. 671009; 0.0001 µM

SMILES	agonist activity (%)
CN(CC1CC1)C1C[C@H]2CC[C@@H](C1)N2[C@H]1CCCC(F)(F)[C@@H]1NC(=O)N1CCC(C)(c2noc([C@@H]3C[C@@H]3F)n2)CC1 (stereo partly drawn) [Example 142, N-[(1R,6S)-6-{(1R,3S,5S)-3-[(cyclopropylmethyl)(methyl)amino]-8-azabicyclo[3.2.1]octan-8-yl}-2,2-difluorocyclohexyl]-4-{5-[(1S,2S)-2-fluorocyclopropyl]-1,2,4-oxadiazol-3-yl}-4-methylpiperidine-1-carboxamide]	407%
